Measured values published in patent publication US20020165188A1, “Methods for inhibition of tumorigenic properties of melanoma cells” (priority 1999, published 2002).
Entries after “also recorded” stand apart in the source; their conditions may differ.

Tests used:
E-cadherin = E-cadherin expression in melanocytic cells under HGF stimulation (immunoblot); type: cell-based, human
Method: (§1) Optimal viral concentrations for infection were determined as the amounts of virus required to yield the desired levels of gene expression without apparent alteration in cellular phenotype or toxicity. Subconfluent melanocytes and melanoma cells were infected with adenoviruses for 2-4 hours at 37° C. in protein-free W489 medium. Viral suspension was then replaced with culture medium. Because dominant negative Desmoglein-3 vector AxCALNLDsg3ΔEC and E-cadherin vector AxCALNLEcadΔEC were made using the Cre-loxP system (Hanakawa et al., 2000), AxCANCre was co-infected with AxCALNLDsg3ΔEC or AxCALNLEcacLΔEC at a ratio of 1:1, respectively. Cells were allowed to recover for at least 24 hours before assay.
(§2) For immunoblotting, cells were washed with PBS and harvested in RIPA buffer. Total protein concentrations were measured using the bicinchoninic acid (BCA) assay (Pierce Chemical Co. Rockford, Ill.). Samples were loaded at 15 μg/lane and separated on 8% SDS polyacrylamide gels and transferred to polyvinylidene difluoride (PVDF) membranes and probed with specific primary antibodies. To detect the signal, peroxidase-conjugated secondary antibody was added, followed by exposure using enhanced chemiluminescence (ECL) (Amersham, Arlington Heights, Ill.). Some of the immunoblots were quantified using NIH Image (version 1.61).

Desmoglein 1 = Desmoglein 1 expression in melanocytic cells under HGF stimulation (immunoblot); type: cell-based, human
Method: as §1, §2

c-Met = c-Met phosphorylation by immunoprecipitation and anti-phosphotyrosine blot; type: cell-based, human
Method: To investigate the status of c-Met phosphorylation, subconfluent melanoma cells were infected with LacZ or Ad.CMV.rhHGF (20 pfu/cell) and cultured for 48 hours. In neutralizing antibody-treated group, HGF neutralizing antibody (final concentration 10 ug/ml) was added to serum-free medium 24 hours before lysis. Cells were washed with cold PBS containing 1 mM Na3VO4, and rapidly scraped into 200 μl PBS containing 1% Triton X-100, 1% NP4O, 1 mM Na3VO4, 1 mM phenylmethyl sulfonyl fluoride (PMSF), and protease inhibitors (1 μg/ml leupeptin, aprotinin and pepstatin). After incubation on ice for 15 minutes, the extracts were separated by centrifugation at 13,000× g for 10 minutes. The supernatants were used for immunoprecipitation using an anti-c-Met antibody (5 μg) for 1 hour at 4° C. with shaking. Protein A-G sepharose CL-4B beads (Pharmacia Biotech, Uppsala, Sweden) were then added and incubated for 12 hours. Samples were washed four times with lysis buffer, boiled in Laemmli buffer containing (3-mercaptoethanol, and subjected to electrophoresis on an 8% SDS-polyacrylamide gel. Separated proteins were transferred onto PVDF membrane and detected by anti-phosphotyrosine primary antibody (PY2O) and peroxidase-conjugated secondary antibody. Signals were detected using ECL.

[1] = system: melanocytes or melanoma cells; assay: Growth of melanocytes and melanoma cells after HGF treatment; type: cell-based, human; conditions: HGF treatment alone
IGF-R1 [2] = target: T1, IGF-R1 (human, UniProt P08069 31-1367, limits assumed); assay: co-immunoprecipitation with anti-Plakoglobin antibody, blot probed with anti-IGF-R1 antibody
T1 construct: Specificity control of the co-immunoprecipitation; also called IF-R1
Excerpt: (§3) Desmoglein 1, E-cadherin, c-Met and Plakoglobin can be co-immunoprecipitated from melanocytic cells. […] To test the possibility that physical interactions underlie the crosstalk between HGF/c-Met signaling and adhesion receptor regulation, the complex formation was investigated by immunoprecipitation analyses. Desmoglein 1, Plakoglobin, c-Met and E-cadherin were detected in the complexes pulled down by either anti-Desmoglein 1 antibody or anti-Plakoglobin antibody in keratinocytes and melanocytes. WM278 expresses no E-cadherin, but the other components were also found to form complexes. The specificity of the interaction was confirmed by probing the same blots with anti-IF-R1 antibody. IF-R1 was not detected in the immunoprecipitants but IF-R1 was detectable in whole cell extract.
(§4) To investigate c-Met Desmoglein lE-cadherin complexes, cells cultured in their optimal media were lysed in 10 mM Tris-HCl (pH7.4), 1% NP-40, 1% Triton X-100, 2mM CaCl₂, 150 mM NaCl, 1 mM PMSF and protease inhibitors (1 μg/ml leupeptin, aprotinin and pepstatin). The extracts were immunoprecipitated using either anti-Desmoglein 1 or anti-Plakoglobin antibody in the same condition described above. Immunoprecipitants were separated on gels, transferred onto PVDF membrane and probed with anti-Desmoglein 1, -Plakoglobin, -c-Met and -E-cadherin antibodies.

IGF-R1 [3] = target: T1, IGF-R1; assay: co-immunoprecipitation with anti-Desmoglein 1 antibody, blot probed with anti-IGF-R1 antibody
Excerpt: as §3, §4

[4] = Ad.CMV.rhHGF transduced melanocytes, antibody 10 μg/ml, wortmannin 30 μM, PD98059 10 μM and 50 μM
[5] = autocrine activation by HGF-expressing adenovirus, melanocytes, WM164, WM35
[6] = continuous/prolonged HGF stimulation (three days; Ad.CMV.rhHGF 20 pfu/cell), melanocytes, WM164 and WM35
[7] = melanocytes, one pulse of recombinant protein 50 ng/ml, five and twelve hour intervals

T1 sequence (P08069 31-1367 limits assumed): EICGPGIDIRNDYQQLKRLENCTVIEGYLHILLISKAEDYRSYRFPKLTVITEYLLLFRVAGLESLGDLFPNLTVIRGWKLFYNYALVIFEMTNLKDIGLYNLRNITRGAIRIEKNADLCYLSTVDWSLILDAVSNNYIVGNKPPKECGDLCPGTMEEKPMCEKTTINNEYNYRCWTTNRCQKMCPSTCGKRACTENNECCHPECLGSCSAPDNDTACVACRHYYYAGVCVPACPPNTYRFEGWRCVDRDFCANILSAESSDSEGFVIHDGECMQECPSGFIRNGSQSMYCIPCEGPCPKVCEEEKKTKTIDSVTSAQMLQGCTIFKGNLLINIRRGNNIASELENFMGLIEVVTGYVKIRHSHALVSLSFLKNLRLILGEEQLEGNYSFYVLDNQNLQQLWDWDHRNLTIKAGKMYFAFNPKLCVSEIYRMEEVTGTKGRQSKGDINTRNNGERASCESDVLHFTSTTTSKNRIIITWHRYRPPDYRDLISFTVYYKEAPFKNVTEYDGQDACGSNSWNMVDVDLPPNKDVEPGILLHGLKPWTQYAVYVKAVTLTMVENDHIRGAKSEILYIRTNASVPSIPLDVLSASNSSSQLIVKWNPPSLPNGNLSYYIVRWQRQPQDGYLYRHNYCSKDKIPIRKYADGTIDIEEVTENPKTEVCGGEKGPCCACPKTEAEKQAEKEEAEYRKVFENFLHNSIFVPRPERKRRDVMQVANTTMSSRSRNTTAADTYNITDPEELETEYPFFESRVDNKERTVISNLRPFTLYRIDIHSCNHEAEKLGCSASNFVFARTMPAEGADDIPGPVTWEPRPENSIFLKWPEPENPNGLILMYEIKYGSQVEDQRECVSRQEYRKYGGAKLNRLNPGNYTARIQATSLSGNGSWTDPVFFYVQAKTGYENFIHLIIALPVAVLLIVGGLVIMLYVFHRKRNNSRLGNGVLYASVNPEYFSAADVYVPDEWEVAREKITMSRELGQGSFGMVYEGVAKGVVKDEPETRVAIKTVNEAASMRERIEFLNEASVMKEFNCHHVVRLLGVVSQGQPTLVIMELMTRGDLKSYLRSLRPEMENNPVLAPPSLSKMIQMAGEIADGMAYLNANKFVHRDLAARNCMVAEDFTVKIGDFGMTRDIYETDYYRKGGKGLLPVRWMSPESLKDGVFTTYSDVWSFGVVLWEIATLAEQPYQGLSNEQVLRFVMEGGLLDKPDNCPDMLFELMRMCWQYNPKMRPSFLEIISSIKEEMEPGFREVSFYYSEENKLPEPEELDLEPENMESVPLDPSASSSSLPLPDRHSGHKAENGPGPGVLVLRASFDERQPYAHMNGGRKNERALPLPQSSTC

COc1cccc(-c2cc(=O)c3ccccc3o2)c1N [PD98059, reference compound]
blocking of HGF-induced downregulation of E-cadherin (E-cadherin; [4]): less effective
blocking of downregulation of E-cadherin (summary statement) (E-cadherin; [5]): partially blocked
blocking of HGF-induced downregulation of Desmoglein 1 (Desmoglein 1; [4]): less effective
blocking of downregulation of Desmoglein 1 (summary statement) (Desmoglein 1; [5]): partially blocked

HGF: multi-functional cytokine acting through tyrosine kinase receptor c-met; recombinant human HGF from R&D Systems
levels of c-Met (c-Met; after HGF treatment): did not change
tyrosine-phosphorylated c-Met (c-Met; melanocytes and melanoma cells treated with additional HGF): dramatic increase
expression levels of E-cadherin (E-cadherin; [6]): greatly reduced
E-cadherin expression after pulse HGF (E-cadherin; [7]): did not alter; also recorded: did not cause downregulation
expression levels of Desmoglein 1 (Desmoglein 1; [6]): greatly reduced
Desmoglein expression after pulse HGF (Desmoglein 1; [7]): did not alter; also recorded: did not cause downregulation
growth stimulation [1]: No significant growth stimulation

B1: Plakoglobin (other, human, UniProt P14923 1-745, looked up)
chain: MEVMNLMEQPIKVTEWQQTYTYDSGIHSGANTCVPSVSSKGIMEEDEACGRQYTLKKTTTYTQGVPPSQGDLEYQMSTTARAKRVREAMCPGVSGEDSSLLLATQVEGQATNLQRLAEPSQLLKSAIVHLINYQDDAELATRALPELTKLLNDEDPVVVTKAAMIVNQLSKKEASRRALMGSPQLVAAVVRTMQNTSDLDTARCTTSILHNLSHHREGLLAIFKSGGIPALVRMLSSPVESVLFYAITTLHNLLLYQEGAKMAVRLADGLQKMVPLLNKNNPKFLAITTDCLQLLAYGNQESKLIILANGGPQALVQIMRNYSYEKLLWTTSRVLKVLSVCPSNKPAIVEAGGMQALGKHLTSNSPRLVQNCLWTLRNLSDVATKQEGLESVLKILVNQLSVDDVNVLTCATGTLSNLTCNNSKNKTLVTQNSGVEALIHAILRAGDKDDITEPAVCALRHLTSRHPEAEMAQNSVRLNYGIPAIVKLLNQPNQWPLVKATIGLIRNLALCPANHAPLQEAAVIPRLVQLLVKAHQDAQRHVAAGTQQPYTDGVRMEEIVEGCTGALHILARDPMNRMEIFRLNTIPLFVQLLYSSVENIQRVAAGVLCELAQDKEAADAIDAEGASAPLMELLHSRNEGTATYAAAVLFRISEDKNPDYRKRVSVELTNSLFKHDPAAWEAAQSMIPINEPYGDDMDATYRPMYSSDVPLDPLEMHMDMDGDYPIDTYSDGLRPPYPTADHMLA
notes: Endogenous protein immunoprecipitated from detergent lysates of cultured human cells; also called gamma-catenin; y-catenin
binding result (IGF-R1 [2]): no binding

B2: Desmoglein 1 (other, human, UniProt Q02413 50-1049, looked up)
chain: EWIKFAAACREGEDNSKRNPIAKIHSDCAANQQVTYRISGVGIDQPPYGIFVINQKTGEINITSIVDREVTPFFIIYCRALNSMGQDLERPLELRVRVLDINDNPPVFSMATFAGQIEENSNANTLVMILNATDADEPNNLNSKIAFKIIRQEPSDSPMFIINRNTGEIRTMNNFLDREQYGQYALAVRGSDRDGGADGMSAECECNIKILDVNDNIPYMEQSSYTIEIQENTLNSNLLEIRVIDLDEEFSANWMAVIFFISGNEGNWFEIEMNERTNVGILKVVKPLDYEAMQSLQLSIGVRNKAEFHHSIMSQYKLKASAISVTVLNVIEGPVFRPGSKTYVVTGNMGSNDKVGDFVATDLDTGRPSTTVRYVMGNNPADLLAVDSRTGKLTLKNKVTKEQYNMLGGKYQGTILSIDDNLQRTCTGTININIQSFGNDDRTNTEPNTKITTNTGRQESTSSTNYDTSTTSTDSSQVYSSEPGNGAKDLLSDNVHFGPAGIGLLIMGFLVLGLVPFLMICCDCGGAPRSAAGFEPVPECSDGAIHSWAVEGPQPEPRDITTVIPQIPPDNANIIECIDNSGVYTNEYGGREMQDLGGGERMTGFELTEGVKTSGMPEICQEYSGTLRRNSMRECREGGLNMNFMESYFCQKAYAYADEDEGRPSNDCLLIYDIEGVGSPAGSVGCCSFIGEDLDDSFLDTLGPKFKKLADISLGKESYPDLDPSWPPQSTEPVCLPQETEPVVSGHPPISPHFGTTTVISESTYPSGPGVLHPKPILDPLGYGNVTVTESYTTSDTLKPSVHVHDNRPASNVVVTERVVGPISGADLHGMLEMPDLRDGSNVIVTERVIAPSSSLPTSLTIHHPRESSNVVVTERVIQPTSGMIGSLSMHPELANAHNVIVTERVVSGAGVTGISGTTGISGGIGSSGLVGTSMGAGSGALSGAGISGGGIGLSSLGGTASIGHMRSSSDHHFNQTIGSASPSTARSRITKYSTVQYSK
notes: Endogenous protein immunoprecipitated from detergent lysates of cultured human cells; also called Dsg1
binding result (IGF-R1 [3]): no binding
